≈ marks a conversion by molar mass, not a printed value.
Assays:
Format in all cases: functional
Staphylococcus aureus [1] = experiment: Antibacterial activity against quinolene-resistant Staphylococcus aureus CCARM 3519 clinical isolate assessed as growth inhibition after 20 hr by two-fold serial dilution method; settings: CCARM 3519, 20 h
Staphylococcus aureus [2] = experiment: Antibacterial activity against quinolene-resistant Staphylococcus aureus CCARM 3505 clinical isolate assessed as growth inhibition after 20 hr by two-fold serial dilution method; settings: CCARM 3505, 20 h
Staphylococcus aureus [3] = experiment: Antibacterial activity against methicillin-resistant Staphylococcus aureus CCARM 3506 clinical isolate assessed as growth inhibition after 20 hr by two-fold serial dilution method; settings: CCARM 3506, 20 h
Staphylococcus aureus [4] = experiment: Antibacterial activity against methicillin-resistant Staphylococcus aureus CCARM 3167 clinical isolate assessed as growth inhibition after 20 hr by two-fold serial dilution method; settings: CCARM 3167, 20 h
Escherichia coli [5] = experiment: Antibacterial activity against Escherichia coli CCARM 1356 assessed as growth inhibition after 20 hr by two-fold serial dilution method; settings: CCARM 1356, 20 h
Escherichia coli [6] = experiment: Antibacterial activity against Escherichia coli CCARM 1924 assessed as growth inhibition after 20 hr by two-fold serial dilution method; settings: CCARM 1924, 20 h
Staphylococcus aureus [7] = experiment: Antibacterial activity against Staphylococcus aureus KCTC 503 assessed as growth inhibition after 20 hr by two-fold serial dilution method; settings: KCTC 503, 20 h
Staphylococcus aureus [8] = experiment: Antibacterial activity against Staphylococcus aureus subsp. aureus RN4220 assessed as growth inhibition after 20 hr by two-fold serial dilution method; settings: RN4220, 20 h

Compound | MIC (Escherichia coli [5]) [µg/mL] | MIC (Escherichia coli [6]) [µg/mL] | MIC (Staphylococcus aureus [7]) [µg/mL] | MIC (Staphylococcus aureus [8]) [µg/mL] | MIC (Staphylococcus aureus [1]) [µg/mL] | MIC (Staphylococcus aureus [2]) [µg/mL] | MIC (Staphylococcus aureus [3]) [µg/mL] | MIC (Staphylococcus aureus [4]) [µg/mL]
Cc1ccc(COc2ccc3cc(/C=C4\SC(=S)N(CC(=O)O)C4=O)ccc3c2)cc1 | > 64 | > 64 | 4 (≈ 8.9 µM) | 2 (≈ 4.45 µM) | 8 (≈ 17.8 µM) | 4 (≈ 8.9 µM) | 4 (≈ 8.9 µM) | 2 (≈ 4.45 µM)
COc1cccc(COc2ccc3cc(/C=C4\SC(=S)N(CC(=O)O)C4=O)ccc3c2)c1 | > 64 | > 64 | > 64 | > 64 |  |  |  | 
O=C(O)CN1C(=O)/C(=C/c2ccc3cc(OCc4ccccc4)ccc3c2)SC1=S | > 64 | > 64 | 64 (≈ 147 µM) | 64 (≈ 147 µM) | 64 (≈ 147 µM) | 64 (≈ 147 µM) | 64 (≈ 147 µM) | 64 (≈ 147 µM)
O=C(O)CN1C(=O)/C(=C/c2ccc3cc(OCc4ccc(Br)cc4)ccc3c2)SC1=S | > 64 | > 64 | 2 (≈ 3.89 µM) | 2 (≈ 3.89 µM) | 4 (≈ 7.78 µM) | 4 (≈ 7.78 µM) | 1 (≈ 1.94 µM) | 1 (≈ 1.94 µM)
O=C(O)CN1C(=O)/C(=C/c2ccc3cc(OCc4ccc(F)cc4)ccc3c2)SC1=S | > 64 | > 64 | 4 (≈ 8.82 µM) | 4 (≈ 8.82 µM) | 4 (≈ 8.82 µM) | 4 (≈ 8.82 µM) | 2 (≈ 4.41 µM) | 4 (≈ 8.82 µM)
COc1ccc(COc2ccc3cc(/C=C4\SC(=S)N(CC(=O)O)C4=O)ccc3c2)cc1OC | > 64 | > 64 | 8 (≈ 16.1 µM) | 4 (≈ 8.07 µM) | 8 (≈ 16.1 µM) | 8 (≈ 16.1 µM) | 8 (≈ 16.1 µM) | 8 (≈ 16.1 µM)
CN(C)c1ccc(COc2ccc3cc(/C=C4\SC(=S)N(CC(=O)O)C4=O)ccc3c2)cc1 | > 64 | > 64 | 64 (≈ 134 µM) | 64 (≈ 134 µM) | > 64 | > 64 | > 64 | > 64
O=C(O)CN1C(=O)/C(=C/c2ccc3cc(OCc4cccc(Br)c4)ccc3c2)SC1=S | > 64 | > 64 | 64 (≈ 124 µM) | 32 (≈ 62.2 µM) | > 64 | > 64 | 64 (≈ 124 µM) | 64 (≈ 124 µM)
Cc1onc(-c2ccccc2)c1C(=O)N[C@@H]1C(=O)N2[C@@H]1SC(C)(C)[C@@H]2C(=O)O [OXACILLIN] | > 64 | > 64 | 1 (≈ 2.49 µM) | 1 (≈ 2.49 µM) | 1 (≈ 2.49 µM) | 1 (≈ 2.49 µM) | > 64 | > 64
O=C(O)CN1C(=O)/C(=C/c2ccc3cc(OCc4cccc(C(F)(F)F)c4)ccc3c2)SC1=S | > 64 | > 64 | > 64 | > 64 |  |  |  | 
O=C(O)CN1C(=O)/C(=C/c2ccc3cc(OCc4ccc(Cl)cc4)ccc3c2)SC1=S | > 64 | > 64 | 4 (≈ 8.51 µM) | 2 (≈ 4.26 µM) | 4 (≈ 8.51 µM) | 4 (≈ 8.51 µM) | 2 (≈ 4.26 µM) | 2 (≈ 4.26 µM)
O=C(O)CN1C(=O)/C(=C/c2ccc3cc(OCc4ccc([N+](=O)[O-])cc4)ccc3c2)SC1=S | > 64 | > 64 | 32 (≈ 66.6 µM) | 64 (≈ 133 µM) | 4 (≈ 8.32 µM) | 8 (≈ 16.6 µM) | 8 (≈ 16.6 µM) | 4 (≈ 8.32 µM)
CCn1cc(C(=O)O)c(=O)c2cc(F)c(N3CCNCC3)cc21 [NORFLOXACIN] | 16 (≈ 50.1 µM) | 16 (≈ 50.1 µM) | 2 (≈ 6.26 µM) | 2 (≈ 6.26 µM) | > 64 | > 64 | 4 (≈ 12.5 µM) | 8 (≈ 25.1 µM)
COc1ccc(COc2ccc3cc(/C=C4\SC(=S)N(CC(=O)O)C4=O)ccc3c2)cc1 | > 64 | > 64 | 8 (≈ 17.2 µM) | 4 (≈ 8.59 µM) | 8 (≈ 17.2 µM) |  | 2 (≈ 4.3 µM) | 2 (≈ 4.3 µM)
O=C(O)CN1C(=O)/C(=C/c2ccc3cc(OCc4ccc(C(F)(F)F)cc4)ccc3c2)SC1=S | > 64 | > 64 | 4 (≈ 7.94 µM) | 4 (≈ 7.94 µM) | 64 (≈ 127 µM) | 64 (≈ 127 µM) | 2 (≈ 3.97 µM) | 2 (≈ 3.97 µM)

Second part, led by results:

MIC (Escherichia coli [5]) [µg/mL] | MIC (Escherichia coli [6]) [µg/mL] | MIC (Staphylococcus aureus [7]) [µg/mL] | MIC (Staphylococcus aureus [8]) [µg/mL] | Compound | MIC (Staphylococcus aureus [1]) [µg/mL] | MIC (Staphylococcus aureus [2]) [µg/mL] | MIC (Staphylococcus aureus [3]) [µg/mL] | MIC (Staphylococcus aureus [4]) [µg/mL]
> 64 | > 64 | > 64 | > 64 | N#Cc1ccc(COc2ccc3cc(/C=C4\SC(=S)N(CC(=O)O)C4=O)ccc3c2)cc1 |  |  |  | 
> 64 | > 64 | > 64 | > 64 | O=C(O)CN1C(=O)/C(=C/c2ccc3cc(OCc4ccc(Cl)cc4Cl)ccc3c2)SC1=S |  |  |  | 
> 64 | > 64 | > 64 | > 64 | O=C(O)CN1C(=O)/C(=C/c2ccc3cc(OCc4c(Cl)cccc4Cl)ccc3c2)SC1=S |  |  |  | 
> 64 | > 64 | > 64 | > 64 | Cc1ccc(COc2ccc3cc(/C=C4\SC(=S)N(CC(=O)O)C4=O)ccc3c2)cc1C |  |  |  | 
> 64 | > 64 | > 64 | > 64 | O=C(O)CN1C(=O)/C(=C/c2ccc3cc(O)ccc3c2)SC1=S |  |  |  | 
> 64 | > 64 | > 64 | > 64 | O=C(O)CN1C(=O)/C(=C/c2ccc3cc(OCc4ccccc4Cl)ccc3c2)SC1=S |  |  |  | 
> 64 | > 64 | > 64 | > 64 | O=C(O)CN1C(=O)/C(=C/c2ccc3cc(OCc4ccccc4Br)ccc3c2)SC1=S |  |  |  | 
> 64 | > 64 | > 64 | > 64 | O=C(O)CN1C(=O)/C(=C/c2ccc3cc(OCc4ccc(I)cc4)ccc3c2)SC1=S |  |  |  | 
> 64 | > 64 | > 64 | > 64 | O=C(O)CN1C(=O)CSC1=S [RHODANINE-3-ACETIC ACID] |  |  |  | 
> 64 | > 64 | > 64 | > 64 | N#Cc1ccccc1COc1ccc2cc(/C=C3\SC(=S)N(CC(=O)O)C3=O)ccc2c1 |  |  |  | 
> 64 | > 64 | > 64 | > 64 | O=C(O)CN1C(=O)/C(=C/c2ccc3cc(OCc4cccc(Cl)c4)ccc3c2)SC1=S |  |  |  | 
> 64 | > 64 | > 64 | > 64 | O=C(O)CN1C(=O)/C(=C/c2ccc3cc(OCc4ccc(Cl)c(Cl)c4)ccc3c2)SC1=S |  |  |  | 
> 64 | > 64 | > 64 | > 64 | O=C(O)CN1C(=O)/C(=C/c2ccc3cc(OCc4cccc(F)c4)ccc3c2)SC1=S |  |  |  | 

From ChEMBL document CHEMBL3044662, “Synthesis and potential antibacterial activity of new rhodanine-3-acetic acid derivatives” (2013)
